Assay results taken from patent US10428124B2, “Timothy grass allergens and methods and uses for immune response modulation” (LA JOLLA INSTITUTE FOR ALLERGY AND IMMUNOLOGY, priority 2012, dated 2019).

Columns and labels:
[1] = tested on: PBMCs from TG allergic donors; assay: IFNg ELISPOT of TG extract-expanded PBMCs from TG allergic donors (single peptides); format: cell-based, human; conditions: for Total response IFNg Events: number of positive response events
[2] = tested on: human IgE; assay: 2D gel immunoblot of TG extract with serum pool from 8 TG-allergic donors, IgE reactivity; format: binding; conditions: for Antibody reactvity IgE/IgG: IgE: E− = not IgE reactive
Procedure: (§1) 2D DIGE (Difference Gel Electrophoresis) analysis. The complete 2D DIGE analysis was performed by Applied Biomics (Hayward, Calif., US). Briefly, TG extract was run on two 2D gels (3-10 pH range, 12% SDS-acrylamide gel), one was Coomassie blue stained, the other was blotted onto a nitrocellulose membrane. The membrane was then incubated with 5% dried milk in PBS/0.05% Tween to block non-specific binding and subsequently probed with a serum pool from 8 TG-allergic individuals at a dilution of 1:250. IgE and IgG binding was detected using goat anti-human IgE and rabbit anti-human IgG (Sigma-Aldrich, St. Louis, Mo.) and visualized using Cy2-conjugated donkey anti-goat IgG and Cy5-conjugated donkey […] IgG antibodies (Biotium, Hayward, Calif.).
(§2) Mass spectral protein identification was performed by Applied Biomics (Hayward, Calif., US). Briefly, spots of interest were selected from the 2D blot and the corresponding spots were identified on the stained SDS gel and cut out, washed several times to remove staining dye and other inhibitory chemicals. The spots were then dried to absorb maximum digestion buffer. Dried 2D gel spots were rehydrated in digestion buffer containing trypsin. Proteins were digested in-gel at 37° C. and then extracted from the gel with TFA extraction buffer. Subsequently the peptides were desalted using C-18 Zip-tips (Millipore) and mixed with CHCA matrix (alpha-cyano-4-hydroxycinnamic acid) and spotted into wells of a MALDI plate. Mass spectra of the peptides in each sample were obtained using an Applied Biosystems Proteomics Analyzer. The spectra were compared to the amino acid sequences encoded by putative ORFs from the de novo assembled TG pollen transcripts. […] The amino acid sequences encoded by these ORFs were clustered using a custom script at a sequence similarity threshold of 90% to group together highly similar protein sequences. These sequences are encoded by different transcripts from the current assembly, which could arise from splice variants, allelic variation between cells of TG pollen, and from gene families with multiple members. Amino acid sequences that form one cluster are assigned one putative protein ID (Table 1).

[3] = tested on: PBMCs from TG allergic donors; assay: IL-5 ELISPOT of TG extract-expanded PBMCs from TG allergic donors (peptide pools, single peptides, TG extract); format: cell-based, human
Procedure: Each donor was recruited following Institutional Review Board approval (Federal Wide Assurance number 00000032) and informed consent and assigned a study identification number. Donors were tested for allergen reactivity by skin prick tests to extracts from 32 common allergens. TG allergic donors were identified as having a skin reaction with a wheal of 5 mm in diameter to TG and a clinical history consistent with seasonal grass pollen allergy. Donors that had received specific immunotherapy were excluded. Non-allergic donors were identified as having negative skin prick tests to all allergens and no clinical history of allergy.
PBMCs were isolated by density gradient centrifugation from one unit of blood (˜450 ml) and cryo-preserved as described previously (12). For in vitro expansions, PBMCs were thawed and cultured in RPMI 1640 (Ω Scientific, Tarzana, Calif.) supplemented with 5% human AB serum (Cellgro, Herndon, Va.) at a density of 2×10^6 cells/ml in 24-well plates (BD Biosciences, San Jose, Calif.) and stimulated with TG pollen extract ([…]) (Greer, Lenoir, N.C.). Cells were kept at 37° C., 5% CO2 and additional IL-2 and IL-7 (10 U/ml, eBioscience, San Diego, Calif.) was added every 3 d after initial antigenic stimulation. On day 14, cells were harvested and screened for reactivity against TG-specific peptide pools (16-25 peptides/pool, averaging 20 peptides/pool). On day 17, peptides from positive pools were tested individually to identify the reactive epitopes.
The production of IL-5 from cultured PBMCs in response to antigen stimulation was measured by ELISPOT as described previously (12). Briefly, 1×10^5 cells/well were incubated with peptide, peptide pool or TG extract (10 μg/ml, 5 μg/ml and 50 μg/ml, respectively). After 24 h, cells were removed and plates were incubated with 2 μg/ml biotinylated anti-human IL-5 Ab (Mabtech) at 37° C. After 2 h, plates were washed and avidin-peroxidase-complex was added (Vector Laboratories, Burlingame, Calif.) for 1 h at RT. Peroxidase-conjugated spots were developed with 3-amino-9-ethylcarvazole solution (Sigma-Aldrich, St. Louis, Mo.). Criteria for peptide pool positivity were 100 SFCs/106 PBMCs, p 0.05, and a stimulation index (SI) 2. Criteria for individual peptides were the same except a minimum of 20 SFCs was counted as positive.

[4] = tested on: human IgG; assay: 2D gel immunoblot of TG extract with serum pool from 8 TG-allergic donors, IgG reactivity; format: binding; conditions: for Antibody reactvity IgE/IgG: IgG: G+ = IgG reactive, G− = not
Procedure: as §1, §2

[5] = tested on: PBMCs from TG allergic donors; assay: IFNg ELISPOT of TG extract-expanded PBMCs from TG allergic donors (single peptides); format: cell-based, human; conditions: T cell recognition in TG allergic patients
[6] = tested on: PBMCs from TG allergic donors; assay: as above; format: cell-based, human; conditions: for Total response IFNg SFC: TG allergic patients; for Total response IFNg Events: number of positive response events in TG allergic patients
[7] = tested on: PBMCs from TG allergic donors; assay: IFNg ELISPOT of TG extract-expanded PBMCs (single peptides); format: cell-based, human; conditions: for Total response IFNg SFC: 15-mer peptide; for Total response IFNg Events: number of positive response events to the 15-mer peptide
[8] = tested on: PBMCs from TG allergic donors; assay: IFNg ELISPOT of TG extract-expanded PBMCs from TG allergic donors (single peptides); format: cell-based, human; conditions: T cell recognition in TG allergic patients; remark: listed apart in the source
[9] = E+ / E− part of the cell, reactivity of the parent antigen
[10] = IL-5, number of positive response events
[11] = G+ / G− part of the cell, reactivity of the parent antigen
[12] = reactivity of the parent antigen (TG protein) from which the peptide is predicted, E+/E−
[13] = number of positive response events in TG allergic patients
[14] = reactivity of the parent antigen (TG protein) from which the peptide is predicted, G+/G−
[15] = reactivity of the parent antigen
[16] = number of positive response events to the 15-mer peptide

Substance | Total response IFNg Events [1] | Total response IFNg SFC [1] [SFC] | Antibody reactvity IgE/IgG (IgE part) [2, 9] | Total response IL-5 Events [3, 10] | Antibody reactvity IgE/IgG (IgG part) [4, 11] | Antibody reactivity IgE/IgG: IgE [2, 12] | Total response IL-5 Events [3, 13] | Antibody reactivity IgE/IgG: IgG [4, 14] | Total response IFNg SFC [6] [SFC] | Total response IFNg Events [6] | Antibody reactvity IgE/IgG: IgE [2, 15] | Total response IFNg Events [7] | Total response IL-5 Events [3, 16] | Antibody reactvity IgE/IgG: IgG [4, 15] | also measured
527 (TVSDEYLAAVAKARR; Phleum pratense) [Peptide 527] | 1 | 73 | E+ | 0 | G+ | – | – | – | – | – | – | – | – | – | Antibody reactvity IgE/IgG (IgE part) ([2]; IgE reactivity of the parent TG antigen): E+; Total response IL-5 Events ([3]; T cell recognition in TG allergic patients, number of positive events): 0; Antibody reactvity IgE/IgG (IgG part) ([4]; IgG reactivity of the parent TG antigen): G+; Total response IFNg SFC [5]: 73 SFC; Total response IFNg Events ([5]; number of positive events): 1
4269 (GVIAGLNVLRIINEP; Phleum pratense) [Peptide 4269] | 1 | 33 | E− | 0 | G+ | E− | 0 | G+ | 33 | 1 | – | – | – | – | –
5621 (KIASFLDPDGWKVVL; Phleum pratense) [Peptide 5621] | – | – | – | – | – | E− | 0 | G− | 343 | 1 | E− | 1 | 0 | G− | Total response IFNg SFC [7]: 343 SFC
6119 (KVSKVLNTYIFLLYL; Phleum pratense) [Peptide 6119] | – | – | – | – | – | E− | 1 | G− | – | 0 | E− | 0 | 1 | G− | Total response IL-5 SFC ([3]; 15-mer peptide): 27 SFC; Total response IL-5 SFC ([3]; TG allergic patients): 27 SFC
26138 (KVINDRFGIVEGLMT; Phleum pratense) [Peptide 26138] | 1 | 37 | E+ | 0 | G− | – | – | – | – | – | – | – | – | – | Total response IFNg SFC [8]: 37 SFC; Total response IFNg Events ([8]; number of response events): 1; Antibody reactivity IgE/IgG: IgE ([2]; IgE reactivity (E+/E−) of the source antigen of the peptide): E+; Total response IL-5 Events ([3]; T cell recognition in TG allergic patients, number of response events): 0; Antibody reactivity IgE/IgG: IgG ([4]; IgG reactivity (G+/G−) of the source antigen of the peptide): G−
48269 (YAVGQKIKAYLEAES; Phleum pratense) [Peptide 48269] | 1 | 297 | E− | 0 | G+ | E− | 0 | G+ | 297 | 1 | – | – | – | – | –
64111 (KNPLKFDNTYFTELL; Phleum pratense) [Peptide 64111] | – | – | – | – | – | E− | 1 | G− | 47 | 1 | E− | 1 | 1 | G− | Total response IFNg SFC [7]: 47 SFC; Total response IL-5 SFC ([3]; 15-mer peptide): 100 SFC; Total response IL-5 SFC ([3]; TG allergic patients): 100 SFC
